Measured values taken from US8663632B1, “Compositions and methods for selectively targeting cancer cells using a thiaminase compound” (University of Kentucky Research Foundation, priority 2008, dated 2014).

System: GRP78 and UPR pathway proteins in breast cancer cell lines
Test: Immunoblot analysis of energy and UPR pathway proteins
Assay type: cell-based, human
Conditions: tunicamycin 5 μg/ml, thapsigargin 1 μM; all four breast cancer cell lines
Method: Cells were treated with thiaminase or anti-cancer agent for the indicated times and washed with ice-cold PBS. Cells were lysed with a triple-detergent lysis buffer (50 mM Tris pH8.0, 150 mM NaCl, 1% NP-40, 0.5% DOC, 0.1% SDS, 0.02% sodium azide and protease inhibitors). Equal amounts of protein were loaded into each well and separated by 10% SDS-PAGE gel, followed by transfer onto nitrocellulose membranes. The membranes were blocked, incubated with the indicated primary antibodies at 4° C. overnight, and the appropriate horseradish peroxidase-conjugated secondary antibody was added for 1 hour at room temperature. Immunoblots were developed by use of the enhanced chemiluminescence (ECL) detection system (Pierce, Rockford, Ill.) according to the manufacturer's protocol and autoradiography. All of the primary antibodies were purchased from Cell Signaling Technologies (Danvers, MA). The secondary antibodies were purchased from Sigma (St. Louis, Mo.). An anti-β-actin antibody was used as a control for protein loading.

C/C=C(/C)C(=O)O[C@H]1C(C)=C2[C@H]([C@@H]1OC(=O)CCCCCCC)[C@@](C)(OC(C)=O)C[C@H](OC(=O)CCC)[C@@]1(O)[C@H]2OC(=O)[C@@]1(C)O [thapsigargin]
GRP78 induction: marked induction

tunicamycin
GRP78 induction: marked induction
